From patent publication US12655106B2 (Eikonizo Therapeutics, Inc., priority 2021, dated 2026) come the findings set out here.

SMILES strings stand for the structures. Bounds are passed on as bounds.

One test addresses T1, Full length Human HDAC6 (Homo sapiens, UniProt Q9UBN7).
T1 construct: Full length Human HDAC6; FLAG (C); host or cells: baculovirus expression system
T1 sequence (Q9UBN7 1-1215): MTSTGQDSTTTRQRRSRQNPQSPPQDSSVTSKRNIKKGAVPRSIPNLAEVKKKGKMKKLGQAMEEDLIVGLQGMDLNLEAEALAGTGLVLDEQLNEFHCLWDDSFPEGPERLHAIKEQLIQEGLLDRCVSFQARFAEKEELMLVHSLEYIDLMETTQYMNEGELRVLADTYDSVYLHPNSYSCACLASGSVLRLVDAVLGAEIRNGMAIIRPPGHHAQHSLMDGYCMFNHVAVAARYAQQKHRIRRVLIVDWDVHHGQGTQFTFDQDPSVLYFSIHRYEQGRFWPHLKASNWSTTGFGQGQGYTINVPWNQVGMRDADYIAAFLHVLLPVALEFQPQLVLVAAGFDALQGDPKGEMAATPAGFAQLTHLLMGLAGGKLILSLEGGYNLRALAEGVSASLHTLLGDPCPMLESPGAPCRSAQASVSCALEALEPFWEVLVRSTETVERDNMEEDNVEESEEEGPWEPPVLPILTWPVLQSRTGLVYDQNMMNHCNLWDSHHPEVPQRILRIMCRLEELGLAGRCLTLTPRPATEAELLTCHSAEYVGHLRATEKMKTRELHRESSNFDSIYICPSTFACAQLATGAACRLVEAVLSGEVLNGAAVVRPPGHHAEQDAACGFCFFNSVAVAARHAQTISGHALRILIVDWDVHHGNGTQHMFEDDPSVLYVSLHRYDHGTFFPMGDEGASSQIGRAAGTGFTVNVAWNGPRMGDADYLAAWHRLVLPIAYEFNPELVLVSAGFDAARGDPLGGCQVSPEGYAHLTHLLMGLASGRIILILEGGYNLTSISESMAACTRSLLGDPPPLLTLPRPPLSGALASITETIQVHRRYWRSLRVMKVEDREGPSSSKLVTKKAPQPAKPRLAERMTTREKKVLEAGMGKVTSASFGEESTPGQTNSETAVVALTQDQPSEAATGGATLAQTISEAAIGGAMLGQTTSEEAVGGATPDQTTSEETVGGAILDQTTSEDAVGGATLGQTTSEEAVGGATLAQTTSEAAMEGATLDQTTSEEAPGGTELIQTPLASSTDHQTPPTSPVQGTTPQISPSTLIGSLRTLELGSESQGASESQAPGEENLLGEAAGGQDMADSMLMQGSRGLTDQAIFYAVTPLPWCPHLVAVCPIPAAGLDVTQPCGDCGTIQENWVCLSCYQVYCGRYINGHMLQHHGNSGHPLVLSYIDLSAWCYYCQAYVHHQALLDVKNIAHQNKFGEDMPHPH
Put plainly: Caliper endpoint assay for HDAC enzymatic activity (HDAC6). The format is biochemical. The note with it: for IC50: in vitro enzymatic, Caliper endpoint assay, 30 min pre-incubation, 1 μM substrate peptide; for Selectivity (6 v 8): ratio of HDAC8 IC50/HDAC6 IC50.

The target of another test is T2, Full length Human HDAC8 (Homo sapiens, UniProt Q9BY41).
T2 construct: Full length Human HDAC8; HIS (N); host or cells: baculovirus expression system
T2 sequence (Q9BY41 1-377): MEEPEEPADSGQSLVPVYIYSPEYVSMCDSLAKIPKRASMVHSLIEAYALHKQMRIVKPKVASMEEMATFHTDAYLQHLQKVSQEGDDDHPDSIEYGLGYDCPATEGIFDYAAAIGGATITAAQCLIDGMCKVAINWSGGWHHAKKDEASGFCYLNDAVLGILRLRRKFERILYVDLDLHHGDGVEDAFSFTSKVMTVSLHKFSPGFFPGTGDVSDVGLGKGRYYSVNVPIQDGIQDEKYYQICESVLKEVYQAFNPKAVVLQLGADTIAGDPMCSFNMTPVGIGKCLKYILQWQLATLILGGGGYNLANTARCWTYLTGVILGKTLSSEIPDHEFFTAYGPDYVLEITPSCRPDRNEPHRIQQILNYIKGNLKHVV
The test can be described thus: Caliper endpoint assay for HDAC enzymatic activity (HDAC8). It counts as biochemical. The note with it: in vitro enzymatic, 30 min pre-incubation, 1 μM substrate peptide.

The IC50 is the concentration at which inhibition is half-maximal. In the case of `CC[C@H]1Cc2c(F)cc(C(=O)NO)cc2CN1CC12CC(NC)(C1)C2` (single isomer, unassigned) [Compound 523], the IC50 at Full length Human HDAC6 is 0.001 to 0.1 µM; on Full length Human HDAC8, 10 to 100 µM. In addition, the “Selectivity (6 v 8)” value on Full length Human HDAC6 is “IV (IV: >100-1000)”.
The like results for `CN1CC2(CCC(N3CCc4cc(C(=O)NO)cc(F)c4C3)C2)C1` (centres unmarked) [Compound 389, 8-fluoro-2-(2-methyl-2-azaspiro[3.4]octan-6-yl)-3,4-dihydro-1H-isoquinoline-6-carbohydroxamic acid] were, in that order, 0.001 to 0.1 µM, above 100 µM and “V (V: >1000)”.
The like results for `CN1CCC2(CCC2N2CCc3cc(C(=O)NO)cc(F)c3C2)CC1` (centres unmarked) [Compound 358, 8-fluoro-2-(7-methyl-7-azaspiro[3.5]nonan-3-yl)-3,4-dihydro-1H-isoquinoline-6-carbohydroxamic acid] were, in that order, 0.001 to 0.1 µM, 1 to 10 µM and “IV (IV: >100-1000)”.
The like results for `O=C(NO)c1cc(F)c2c(c1)CCN(CC1CCC3(CC1)CNC3)C2` [Compound 464, 2-(2-azaspiro[3.5]nonan-7-ylmethyl)-8-fluoro-3,4-dihydro-1H-isoquinoline-6-carbohydroxamic acid] were, in that order, 0.001 to 0.1 µM, 10 to 100 µM and “V (V: >1000)”.
Turning to `CC[C@H]1Cc2c(F)cc(C(=O)NO)cc2CN1C[C@]12CN[C@H](CO1)C2` (single isomer, unassigned) [Compound 549], on Full length Human HDAC6, the IC50 was 0.001 to 0.1 µM and the “Selectivity (6 v 8)” value was “IV (IV: >100-1000)”. The IC50 against Full length Human HDAC8 was in the range of 10 to 100 µM.
For `CC[C@H]1Cc2c(F)cc(C(=O)NO)cc2CN1C1CC2(CCOCC2)C1` (single isomer, unassigned) [Compound 591] the same measures were 0.001 to 0.1 µM, “IV (IV: >100-1000)” and 10 to 100 µM.
The like results for `CC(C)N1CC2(CCCCC2)CC[C@@H]1Cc1cc(F)cc(C(=O)NO)c1` (single isomer, unassigned) [Compound 275] were, in that order, 1 to 10 µM, “I (I: 0.1-1)” and 1 to 10 µM.
For `CC(=O)N1CC2(CCC(N3CCc4cc(C(=O)NO)cc(F)c4C3)CC2)C1` [Compound 429, 2-(2-acetyl-2-azaspiro[3.5]nonan-7-yl)-8-fluoro-3,4-dihydro-1H-isoquinoline-6-carbohydroxamic acid] the same measures were 0.001 to 0.1 µM, “IV (IV: >100-1000)” and 10 to 100 µM.
As to `Cc1cc2c(cc1C(=O)NO)CCN(C1CC3(CCCCC3)C1)C2`, the IC50 at Full length Human HDAC6 is above 100 µM; against Full length Human HDAC8 it was 10 to 100 µM. Besides, the “Selectivity (6 v 8)” value at Full length Human HDAC6 is recorded as “V (V: >1000)”.
For `O=C(NO)c1cc(F)c2c(c1)CCN([C@@H]1CCCC3(CCC3)C1)C2` (single isomer, unassigned) [Compound 194] the same measures were 0.001 to 0.1 µM, 10 to 100 µM and “V (V: >1000)”.
For `CC[C@@H]1Cc2c(F)cc(C(=O)NO)cc2CN1CC1C2CC1CN(C)C2` (single isomer, unassigned) [Compound 530] the same measures were 0.1 to 1 µM, 10 to 100 µM and “III (III: >10-100)”.
`CC[C@H]1N(Cc2ccc(C(=O)NO)cc2F)CC12CCCC2` [Compound 169]: the IC50 fell in the range of 0.001 to 0.1 µM against Full length Human HDAC6 and 1 to 10 µM against Full length Human HDAC8.
In the case of `CC[C@H]1Cc2c(F)cc(C(=O)NO)cc2CN1C1CC2(CCN(C)CC2)C1` (single isomer, unassigned) [Compound 595], on Full length Human HDAC6, the IC50 is 0.1 to 1 µM and the “Selectivity (6 v 8)” value is listed as “IV (IV: >100-1000)”. The compound also gave an IC50 at Full length Human HDAC8 of 10 to 100 µM.
For `O=C(NO)c1ccc2c(c1F)CCN(C1CC3(CCCCC3)C1)C2` [Compound 506, 5-fluoro-N-hydroxy-2-(spiro[3.5]nonan-2-yl)-1,2,3,4-tetrahydroisoquinoline-6-carboxamide] the same measures were above 100 µM, “V (V: >1000)” and 10 to 100 µM.
